Reference: patent US12133916B2, “Process for producing an andrographolide carrier system” (priority 2021, dated 2024)

Experiment: Water solubility / water-dispersability comparison (FIG. 1)
Format: physicochemical
Details: dispersed in water, visual

water-dispersability (FIG. 1): insoluble in water
Structure (SMILES): C=C1CC[C@@H]2[C@](C)(CO)[C@H](O)CC[C@@]2(C)[C@@H]1C/C=C1/C(=O)OC[C@H]1O [known 99% andrographolide, Andrographolide]
